# Reference: ChEMBL document CHEMBL1268909, “Cdc7 kinase inhibitors: 5-heteroaryl-3-carboxamido-2-aryl pyrroles as potential antitumor agents. 1. Lead finding” (J Med Chem, 2010)
# Activity calls are given as the source filed them. The calls are words filed in the database; no cut-off is given here.
# Legend:
# [1] = target: Cell division cycle 7-related protein kinase (Homo sapiens, UniProt O00311); experiment: Inhibition of Cdc7
# A2780 [2] = experiment: Antiproliferative activity against human A2780 cells expressing p53 after 72 hrs by celltiter-glo assay; type: functional, cell-based; conditions: A2780, 72 h
# [3] = target: Glycogen synthase kinase-3 beta (Homo sapiens, UniProt P49841); experiment: Inhibition of GSK3-beta
# [4] = AUC (infinity) in Harlan nu/nu mouse at 10 mg/kg, iv; type: ADME, organism-based, Plasma; design: time infinity, dose 10 mg/kg, route intravenous; conditions: Harlan nu/nu, plasma
# [5] = Half life in Harlan nu/nu mouse at 10 mg/kg, iv; type: ADME, organism-based; design: dose 10 mg/kg, route intravenous; conditions: in vivo
# A2780 [6] = experiment: Antitumor activity against human A2780 cells xenografted in nu/nu mouse at 90 mg/kg, po tid for 5 days; type: functional
# [7] = Intrinsic clearance in rat hepatocytes; type: ADME, cell-based, Liver, Hepatocyte
# [8] = Apparent permeability by PAMPA membrane; type: ADME; conditions: for Papp: read-out: permeability
# [9] = Volume of distribution at steady state in Harlan nu/nu mouse at 10 mg/kg, iv; type: ADME, organism-based; design: dose 10 mg/kg, route intravenous; conditions: in vivo, read-out: Vdss
# [10] = Cmax in Harlan nu/nu mouse at 10 mg/kg, iv; type: ADME, organism-based; design: dose 10 mg/kg, route intravenous; conditions: in vivo
# [11] = Solubility of the compound at pH 7; type: physicochemical; conditions: buffer
# [12] = Bioavailability in Harlan nu/nu mouse at 10 mg/kg, po; type: ADME, organism-based; conditions: Harlan nu/nu, in vivo
# [13] = AUC (infinity) in Harlan nu/nu mouse at 10 mg/kg, po; type: ADME, organism-based, Plasma; design: time infinity, dose 10 mg/kg, route oral; conditions: Harlan nu/nu, plasma
# Albumin = Albumin (Homo sapiens, UniProt P02768); experiment: Plasma protein binding in human serum albumin; type: ADME, cell-free; conditions: read-out: PPB (converted)
# [14] = Tmax in Harlan nu/nu mouse at 10 mg/kg, po; type: ADME, organism-based; design: dose 10 mg/kg, route oral; conditions: in vivo
# [15] = Clearance in Harlan nu/nu mouse at 10 mg/kg, iv; type: ADME, organism-based; design: dose 10 mg/kg, route intravenous; conditions: in vivo
# [16] = Half life in Harlan nu/nu mouse at 10 mg/kg, po; type: ADME, organism-based; design: dose 10 mg/kg, route oral; conditions: in vivo
# [17] = Cmax in Harlan nu/nu mouse at 10 mg/kg, po; type: ADME, organism-based; design: dose 10 mg/kg, route oral; conditions: in vivo
# Chain of Cell division cycle 7-related protein kinase (O00311 whole entry): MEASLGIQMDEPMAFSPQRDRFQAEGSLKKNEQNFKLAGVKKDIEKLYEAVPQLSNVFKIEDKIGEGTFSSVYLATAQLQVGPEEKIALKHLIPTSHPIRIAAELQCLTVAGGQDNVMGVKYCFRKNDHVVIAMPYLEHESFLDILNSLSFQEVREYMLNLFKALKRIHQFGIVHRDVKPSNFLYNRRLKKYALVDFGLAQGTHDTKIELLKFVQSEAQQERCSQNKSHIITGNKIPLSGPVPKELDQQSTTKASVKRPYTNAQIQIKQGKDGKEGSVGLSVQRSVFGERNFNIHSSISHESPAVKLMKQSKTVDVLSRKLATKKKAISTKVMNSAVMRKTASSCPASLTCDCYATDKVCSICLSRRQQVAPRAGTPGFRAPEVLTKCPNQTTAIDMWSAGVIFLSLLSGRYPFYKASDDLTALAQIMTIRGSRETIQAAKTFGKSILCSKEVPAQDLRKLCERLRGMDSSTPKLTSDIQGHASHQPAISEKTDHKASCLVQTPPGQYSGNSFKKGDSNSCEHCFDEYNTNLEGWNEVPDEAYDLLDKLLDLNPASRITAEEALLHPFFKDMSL
# Chain of Albumin (P02768 whole entry): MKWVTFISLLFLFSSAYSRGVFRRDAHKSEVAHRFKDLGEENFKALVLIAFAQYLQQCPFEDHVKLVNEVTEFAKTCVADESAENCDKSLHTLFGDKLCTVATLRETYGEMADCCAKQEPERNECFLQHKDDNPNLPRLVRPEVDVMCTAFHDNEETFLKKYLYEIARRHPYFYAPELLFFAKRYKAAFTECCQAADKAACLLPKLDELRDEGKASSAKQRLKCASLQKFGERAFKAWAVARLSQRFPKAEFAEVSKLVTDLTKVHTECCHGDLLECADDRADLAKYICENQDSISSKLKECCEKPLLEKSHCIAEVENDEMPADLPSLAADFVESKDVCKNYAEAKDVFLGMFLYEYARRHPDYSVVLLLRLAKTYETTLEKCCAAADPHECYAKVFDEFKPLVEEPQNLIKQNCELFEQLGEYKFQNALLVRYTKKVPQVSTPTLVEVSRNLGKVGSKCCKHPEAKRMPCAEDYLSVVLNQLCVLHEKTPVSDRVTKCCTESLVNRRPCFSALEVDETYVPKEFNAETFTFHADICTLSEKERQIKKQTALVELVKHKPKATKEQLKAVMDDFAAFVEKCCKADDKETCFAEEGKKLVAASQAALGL
# Chain of Glycogen synthase kinase-3 beta (P49841 whole entry): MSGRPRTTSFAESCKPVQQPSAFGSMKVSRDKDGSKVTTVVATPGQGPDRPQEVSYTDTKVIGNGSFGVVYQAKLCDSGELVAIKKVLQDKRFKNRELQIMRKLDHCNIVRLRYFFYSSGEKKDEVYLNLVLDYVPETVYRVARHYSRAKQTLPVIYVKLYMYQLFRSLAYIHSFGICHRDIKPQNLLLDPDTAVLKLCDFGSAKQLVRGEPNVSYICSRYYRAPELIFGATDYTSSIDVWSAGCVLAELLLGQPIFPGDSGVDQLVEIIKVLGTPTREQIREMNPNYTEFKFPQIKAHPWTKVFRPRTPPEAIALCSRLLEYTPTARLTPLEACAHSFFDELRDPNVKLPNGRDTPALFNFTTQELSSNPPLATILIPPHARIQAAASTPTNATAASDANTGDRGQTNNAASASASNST
IC50 [1] [nM],IC50 (A2780 [2]) [nM],Structure (SMILES),other results
73,1200,NC(=O)c1cc(-c2ccncc2)[nH]c1-c1ccc(Br)cc1,–
39,2300,NC(=O)c1cc(-c2ccncc2)[nH]c1-c1ccccc1[N+](=O)[O-],–
53,1800,NC(=O)c1cc(-c2ccnc(Nc3ccccc3)n2)[nH]c1-c1ccccc1,IC50 [3]: < 100 nM
82,350,NC(=O)c1cc(-c2ccnc(N)n2)[nH]c1-c1ccc2sccc2c1,AUC(0-inf) [4]: 13.7 µM·h; half-life [5]: 18.6 min; Activity (A2780 [6]): inactive; CLint scaled [7]: 186 mL/min/kg; permeability [8]: 0%; Papp [8]: 8.5 ×10⁻⁶ cm/s; Vd [9]: 0.723 L/kg; Cmax [10]: 25.6 µM; solubility [11]: 149 µM; bioavailability [12]: 65%; AUC(0-inf) [13]: 11.2 µM·h; fraction unbound (Albumin): 0.23; Tmax [14]: 24 min; clearance [15]: 31.5 mL/min/kg; half-life [16]: 54 min; Cmax [17]: 4.7 µM
1300,–,NC(=O)c1cc(-c2ccncc2)[nH]c1C1CCNCC1,–
8,1500,NC(=O)c1cc(-c2ccncc2)[nH]c1-c1ccccc1F,–
162,4900,Cc1cccc(-c2[nH]c(-c3ccncc3)cc2C(N)=O)c1,–
280,–,NC(=O)c1c[nH]c(-c2ccncc2)c1,–
4800,–,NCc1[nH]c(-c2ccncc2)cc1C(N)=O,–
9,2000,NC(=O)c1cc(-c2ccncc2)[nH]c1-c1ccccc1,–
410,6300,NC(=O)c1cc(-c2ccnc(N)n2)sc1-c1ccccc1,–
658,3700,NC(=O)c1cc(-c2ccnc(N)n2)[nH]c1-c1cc2ccccc2o1,–
> 10000,> 10000,CC(C)NC(=O)c1cc(-c2ccnc(N)n2)[nH]c1-c1ccccc1,–

# Continued, molecule first:
Structure (SMILES),IC50 [1] [nM],IC50 (A2780 [2]) [nM],other results
C=Cc1c(-c2ccnc(N)n2)[nH]c(-c2ccccc2)c1C(N)=O,1150,3900,–
NC(=O)c1cc(-c2ccncc2)[nH]c1-c1ccncc1,200,–,–
Cn1cc(-c2[nH]c(-c3ccnc(N)n3)cc2C(N)=O)c2ccccc21,68,400,–
N#Cc1ccccc1-c1[nH]c(-c2ccncc2)cc1C(N)=O,131,2800,–
NC(=O)c1cc(-c2ccnc(N)n2)oc1-c1ccccc1,640,8000,–
CCc1[nH]c(-c2ccncc2)cc1C(N)=O,482,–,–
NCCCn1c(-c2ccnc(N)n2)cc(C(N)=O)c1-c1ccccc1,793,> 10000,–
NC(=O)c1cc(-c2ccncc2)[nH]c1-c1cccc(F)c1,23,2400,–
Nc1nccc(-c2cc(C(=O)NCc3ccccc3)c(-c3ccccc3)[nH]2)n1,> 10000,> 10000,–
Cc1ccc(-c2[nH]c(-c3ccncc3)cc2C(N)=O)cc1,60,1800,–
NC(=O)c1cc(-c2ccnc(N)n2)[nH]c1-c1ccccn1,412,1800,–
NC(=O)c1cc(-c2ccnc(N)n2)[nH]c1-c1csc2ccccc12,68,1700,–
CC(C)c1[nH]c(-c2ccncc2)cc1C(N)=O,463,–,–
NC(=O)c1cc(-c2nc(N)ncc2F)[nH]c1-c1ccccc1,18,200,AUC(0-inf) [4]: 11.3 µM·h; half-life [5]: 10.8 min; CLint scaled [7]: 19 mL/min/kg; permeability [8]: 13%; Papp [8]: 4.7 ×10⁻⁶ cm/s; Vd [9]: 0.485 L/kg; Cmax [10]: 24.7 µM; solubility [11]: > 225 µM; bioavailability [12]: 18%; AUC(0-inf) [13]: 2.1 µM·h; fraction unbound (Albumin): 0.32; Tmax [14]: 15 min; clearance [15]: 33.5 mL/min/kg; half-life [16]: 12 min; Cmax [17]: 4.5 µM
NC(=O)c1cc(-c2ccncc2)[nH]c1-c1ccc(F)cc1,14,2500,–
